# Assay results published in ChEMBL document CHEMBL3217658, “Scaffold-hopping from aminoglycosides to small synthetic inhibitors of bacterial protein biosynthesis using a pseudoreceptor model” (Medchemcomm, 2011).
# Activity calls are given as the source filed them. The calls are words filed in the database; no cut-off is given here.
# What was measured:
# [1] = tested on: Escherichia coli; assay: Binding affinity to Escherichia coli ribosomal A-site assessed as inhibition of GFP biosynthesis at 500 uM by transcription/translation assay relative to chloramphenicol
# [2] = tested on: Bacillus subtilis; assay: Antibacterial activity against Bacillus subtilis 168 assessed as growth inhibition after 20 hrs by microtiter broth dilution method; format: functional; conditions: subsp. subtilis str. 168, 20 h
# [3] = target: Transient receptor potential cation channel subfamily V member 1 (Homo sapiens, UniProt Q8NER1); assay: Inhibition of TRPV1-mediated membrane currents in human DRG neurons
# Chain of Transient receptor potential cation channel subfamily V member 1 (Q8NER1 whole entry): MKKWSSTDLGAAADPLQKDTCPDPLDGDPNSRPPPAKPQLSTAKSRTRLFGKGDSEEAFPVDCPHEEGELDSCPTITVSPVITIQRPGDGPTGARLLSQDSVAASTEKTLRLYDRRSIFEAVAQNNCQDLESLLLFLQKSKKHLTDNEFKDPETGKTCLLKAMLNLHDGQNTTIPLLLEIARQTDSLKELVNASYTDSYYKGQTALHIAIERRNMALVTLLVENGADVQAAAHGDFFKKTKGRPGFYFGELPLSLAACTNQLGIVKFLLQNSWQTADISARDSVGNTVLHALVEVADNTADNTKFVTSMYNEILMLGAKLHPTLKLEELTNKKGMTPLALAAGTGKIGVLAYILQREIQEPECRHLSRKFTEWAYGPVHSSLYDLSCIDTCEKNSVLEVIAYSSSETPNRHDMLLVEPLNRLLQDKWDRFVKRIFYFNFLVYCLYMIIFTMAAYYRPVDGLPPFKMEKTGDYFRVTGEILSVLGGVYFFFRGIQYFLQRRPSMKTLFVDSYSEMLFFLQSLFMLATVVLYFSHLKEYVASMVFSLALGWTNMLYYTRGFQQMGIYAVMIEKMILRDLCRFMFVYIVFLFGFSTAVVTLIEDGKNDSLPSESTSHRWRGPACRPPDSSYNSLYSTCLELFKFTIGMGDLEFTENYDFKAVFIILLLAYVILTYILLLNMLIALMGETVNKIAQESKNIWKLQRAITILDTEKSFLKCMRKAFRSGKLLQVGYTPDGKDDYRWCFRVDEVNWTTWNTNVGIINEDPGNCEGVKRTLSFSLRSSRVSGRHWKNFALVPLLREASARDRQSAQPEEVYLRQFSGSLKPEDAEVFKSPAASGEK
# [4] = tested on: Bacillus subtilis; assay: Antibacterial activity against Bacillus subtilis 168 assessed as growth inhibition at 0.5 to 500 uM after 20 hrs by microtiter broth dilution method; format: functional, organism-based; conditions: subsp. subtilis str. 168
smiles,measurement,setting,value
COc1cccc(CNCCc2c[nH]c3ccccc23)c1OCc1ccccc1F,inhibition,[1],71%
same,MIC,[2],125 µM
Nc1[nH]c(C2OC(CO)C(O)C2O)nc1C(=O)NCc1ccccc1 (configuration not stated),inhibition,[1],22%
CC(O)CNCCNCc1ccccc1 (configuration not stated),inhibition,[1],36%
NC[C@@H]1O[C@H](O[C@H]2[C@@H](O)[C@H](O[C@@H]3[C@@H](O)[C@H](N)C[C@H](N)[C@H]3O[C@H]3O[C@H](CN)[C@@H](O)[C@H](O)[C@H]3N)O[C@@H]2CO)[C@H](N)[C@@H](O)[C@@H]1O [FRAMYCETIN],IC50,[3],400 nM
CNCCCNCc1ccc(OCC(N)=O)c(OC)c1,inhibition,[1],inactive
COc1cc(CNCCc2c[nH]c3ccccc23)ccc1OCc1ccc(F)cc1,MIC,[2],63 µM
COc1cc(CNCCc2c[nH]c3ccccc23)cc(Cl)c1OCC(N)=O,inhibition,[1],82%
same,growth inhibition (GI),[4],inactive
COc1cc(CNC(=O)CCCC/C=C/C(C)C)ccc1O [CAPSAICIN],MIC,[2],63 µM
OCC(O)C(O)C(O)C(O)C1NNC(=S)NN1 (configuration not stated),inhibition,[1],inactive
NC(=O)c1ncn([C@H]2C[C@@H](CO)[C@H](O)[C@@H]2O)n1,inhibition,[1],inactive
Nc1cc(NC2OC(CO)C(O)C(O)C2O)ccc1[N+](=O)[O-] (configuration not stated),inhibition,[1],61%
CC(O)CNCCNCc1cccc2ccccc12 (configuration not stated),inhibition,[1],64%
CC(=O)N1[C@H](CO)CS[C@@H]1[C@H](O)[C@@H](O)[C@@H](O)[C@H](O)CO,inhibition,[1],inactive
O=c1[nH]c(=O)n2c(c1[N+](=O)[O-])NC(C(O)C(O)C(O)CO)C2O (configuration not stated),inhibition,[1],13%
COc1cc(CNCCc2c[nH]c3ccccc23)ccc1OCc1ccc(Cl)nc1,MIC,[2],250 µM
